Source: patent US20260250318A1, “COMPOSITIONS AND METHODS FOR CROSSING THE BLOOD BRAIN BARRIER” (VOYAGER THERAPEUTICS, INC., priority 2022, published 2026)

Assays:
Conditions in all cases: synthetic library passage 3, intravenous, relative to wild-type AAV9
[1] = tested on: brain, spinal cord, and DRG of the NHPs; experiment: NGS fold enrichment of synthetic library (passage 3) in NHPs, first cross-species screen; type: in vivo, cynomolgus macaques (Macaca fascicularis)
How it was run: (§1)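 Passage-3 synthetic capsid library given intravenously […] to NHPs (2-4 years) and BALB/c or C57Bl/6 mice (n=3, 6-8 weeks). After e.g. 28 days, tissue RNA was RT-PCR amplified and NGS-sequenced; values are fold enrichment of each variant relative to wild-type AAV9.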

brain [2] = experiment: NGS fold enrichment of synthetic library (passage 3) in BALB/c mice, first cross-species screen; type: in vivo
How it was run: as §1

brain [3] = experiment: NGS fold enrichment of synthetic library (passage 3) in C57Bl/6 mice, first cross-species screen; type: in vivo
How it was run: as §1

[4] = RNA from spinal cord of NHPs, NGS
[5] = RNA from brain of BALB/c mice, NGS
[6] = RNA from brain of C57Bl/6 mice, NGS

Row | Sequence | Fold enrichment over AAV9 in the brain of NHPs ([1]; RNA NGS, brain of NHPs) | Fold enrichment over AAV9 in the spinal cord of NHPs ([1]; RNA NGS, spinal cord of NHPs) | Fold enrichment over AAV9 in the brain of Mice (BALB/c) (brain [2]; RNA NGS, brain of BALB/c mice) | Fold enrichment over AAV9 in the brain of Mice (C57Bl/6) (brain [3]; RNA NGS, brain of C57Bl/6 mice) | Fold enrichment over AAV9 in the brain of NHPs ([1]; RNA from brain of NHPs, NGS) | Fold enrichment over AAV9 in the spinal cord of NHPs [1, 4] | Fold enrichment over AAV9 in the brain of Mice (BALB/c) (brain [2]; [5]) | Fold enrichment over AAV9 in the brain of Mice (C57Bl/6) (brain [3]; [6])
1 | GSSQSTGYQPNQQT | 1.847 fold | 3.388 fold | 0.577 fold | 0.522 fold | – | – | – | –
2 | GSHSQSGHGQNQQT | 1.413 fold | 1.240 fold | 0.318 fold | 0.696 fold | – | – | – | –
3 | GSGQLVTSGPNQQT | 1.669 fold | 5.271 fold | 0.433 fold | 0.964 fold | – | – | – | –
4 | GAMTVTISGQNQQT | 1.542 fold | 6.249 fold | 0.257 fold | 0.443 fold | – | – | – | –
5 | GSGQNQQPSSRVTT | 1.012 fold | 2.179 fold | 0.504 fold | 0.784 fold | – | – | – | –
6 | GARIQNASGQKQQT | 2.300 fold | 2.103 fold | 1.039 fold | 1.220 fold | – | – | – | –
7 | GSGLAHLGGQNQQT | 1.064 fold | 2.191 fold | 0.794 fold | 0.749 fold | – | – | – | –
8 | GSGQHAAPGHNQQT | – | – | – | – | 1.195 fold | 5.999 fold | 0.199 fold | 0.600 fold
9 | GSGSKQNALQNQQT | – | – | – | – | 1.216 fold | 2.010 fold | 0.594 fold | 0.941 fold
10 | GSGQNQQTALGVKC | 1.835 fold | 1.343 fold | 1.014 fold | 1.378 fold | – | – | – | –
11 | GSGQLSVPYDNQQT | 1.521 fold | 0.000 fold | 0.111 fold | 0.622 fold | – | – | – | –
12 | GSLDLGRSGQNQQT | – | – | – | – | 1.160 fold | 3.283 fold | 0.505 fold | 1.002 fold
13 | GSEQTRQRGQNQQT | – | – | – | – | 1.333 fold | 2.172 fold | 0.815 fold | 0.574 fold
14 | GSGQSVQTVVNQQT | 3.057 fold | 5.441 fold | 0.240 fold | 0.582 fold | – | – | – | –
15 | GSGQNQQTVGNPAT | 1.008 fold | 3.014 fold | 0.395 fold | 0.856 fold | – | – | – | –
16 | GSGQNSYSHTSQQT | 1.765 fold | 2.262 fold | 0.658 fold | 1.130 fold | – | – | – | –
